Series [1] has as its system Human iNKT cells. Put plainly: Cytokine production of human iNKT cells co-cultured with compound-loaded dendritic cells (Luminex). It is filed as cell-based. The note with it: for ratio of IL-4/IFN-γ / ratio of IL-10/IFN-γ: human iNKT cells with compound-loaded dendritic cells, Th2 skewing; for IFN-γ level induced / IL-10 level induced / GM-CSF level induced / IL-2 level induced / IL-4 level induced: dendritic cells loaded with 1 μM compound, cultured with iNKT cells for 3 days, mean±SD. Here is the method: The immune response elicited by Compounds 1 and 2a-2i in human NKT cells was evaluated using human dendritic cell (DC).
Method: Human iNKT cells were isolated with anti-TCR Vα24 antibody and cultured for 7 days in the presence of IL-2 (1 μg/mL). The dendritic cells were generated from CD14+ cells, sorted from peripheral blood mononuclear cells (PBMC) by incubating PBMC for 7 days with GM-CSF (50 ng/mL) and IL-4 (50 ng/mL). Dendritic cells were loaded with the following: 1 μM of Compound 1 or 1 μM of Compounds 2a-2i, and cultured with iNKT cells for 3 days. The culture supernatants were collected and analyzed for various cytokines production by Luminex. Data were presented as mean±SD and analyzed by one-way ANOVA.
The ratios of IL-4/IFN-γ and IL-10/IFN-γ were used evaluate if the immune response elicited by Compounds 1 and 2a-2i was skewed toward Th2 mediated response.

Series [2] in a line: Solubility noted during characterisation. It is filed as physicochemical. The conditions noted are these: room temperature; prevented optical rotation measurement.
The test system of series [3] is mNK1.2 cells. Kind of series: Induction of IL-2 in mNK1.2 cells cultured with compound-loaded A20-CD1d cells (ELISA). The conditions noted are these: cultured with mNK1.2 cells, supernatant after 72 hours. It is filed as cell-based, murine. As to the method: The immune response elicited by Compounds 1 and 2a-2i was assessed by the induction of IL-2 in mNK1.2 cells. Compound 1 is illustrated by the following formula: […]
Method: A20-CD 1d cells were loaded with Compound 1 (α-GalCer) and Compounds 2a-2i, and cultured with mNK1.2 cells. Supernatants were collected after 72 hours to determine the production of IL-2 by ELISA.
For orientation: ELISA stands for enzyme-linked immunosorbent assay.

Where [4] appears, read: in words, relative to Compound 1.

The results in this text go back to patent US20160115188A1, “NOVEL alpha-GALACTOSYL CERAMIDE ANALOGS AND USES THEREOF” (Chang Gung Memorial Hospital, Linkou, priority 2014, published 2016).

For `CCCCCCCCCCCCCCCCCCCCCCCC(=O)N[C@@H](COC1OC(CO)C(O)C(O)C1O)[C@H](O)[C@H](O)CCCCC` (some centres unmarked) [OCH, reference compound], in series [1], the “ratio of IL-4/IFN-γ” value turned out to be 0.25 and the “ratio of IL-10/IFN-γ” value is given as 0.26.

By melting point is commonly meant the temperature, or range, at which the solid turns liquid. Compound `CCCCCCCCCCCCCCCCCCCCCCCCCC(=O)N[C@@H](CO[C@H]1OC(CN)[C@H](O)C(O)C1O)[C@H](O)[C@H](O)CCCCCCCCCCCCCC` (stereo partly drawn) [Compound 2i, (2S,3S,4R)-1-O-(6-amine-α-D-galactopyranosyl)-D-ribo-2-hexacosanoylamino-1,3,4-octadecantriol] gave a melting point of 187 to 188 °C. Further, in series [1], the IFN-γ level induced is 2687 ± 89.4 pg/mL and the IL-10 level induced was determined as 2001 ± 46.8 pg/mL. In series [1] (setting [4]), the “level of IFN-γ compared to Compound 1” value is recorded as “comparable level”, the “level of IL-4 compared to Compound 1” value is “lower level” and the “ratio of IL-4/IFN-γ compared to Compound 1” value is on record as “lower ratio”. Moreover, the solubility result in series [2] is “poor solubility”.

`CCCCCCCCCCCCCCCCCCCCCCCCCC(=O)N[C@@H](CO[C@H]1O[C@H](COCCCCCCCCCCCCCCCCCCCC)[C@H](O)[C@H](O)[C@H]1O)[C@H](O)[C@H](O)CCCCCCCCCCCCCC` [Compound 2f, (2S,3S,4R)-1-O-(6-O-eicosanyl-α-D-galactopyranosyl)-D-ribo-2-hexacosanoylamino-1,3,4-oc-tadecantriol]: in series [1], the “ratio of IL-4/IFN-γ” value is reported as 0.093±0.041 and the “ratio of IL-10/IFN-γ” value was determined as 0.69±0.24.

`CCCCCCCCCCCCCCCCCCCCCCCCCC(=O)N[C@@H](CO[C@H]1OC(COP(=O)(O)O)[C@H](O)C(O)C1O)[C@H](O)[C@H](O)CCCCCCCCCCCCCC` (stereo partly drawn) [Compound 2g, (2S,3S,4R)-1-O-(6-O-phospho-α-D-galactopyranosyl)-D-ribo-2-hexacosanoylamino-1,3,4-oc-tadecantriol, phosphoric acid] gave a melting point of 182 °C. Further, in series [1], the GM-CSF level induced is 1350 ± 146.2 pg/mL, the IFN-γ level induced amounted to 2704 ± 10.3 pg/mL and the IL-10 level induced was 2010 ± 325.1 pg/mL.

Take `CCCCCCCCCCCCCCCCCCCCCCCCCC(=O)N[C@@H](CO[C@H]1O[C@H](COCCCCCCCCCCCC)[C@H](O)[C@H](O)[C@H]1O)[C@H](O)[C@H](O)CCCCCCCCCCCCCC` [Compound 2d, (2S,3S,4R)-1-O-(6-O-dodecyl-α-D-galactopyranosyl)-D-ribo-2-hexacosanoylamino-1,3,4-oct-adecantriol]: in series [1], the IL-2 level induced worked out at 33.8 ± 0.2 pg/mL, the IL-4 level induced was determined as 191.5 ± 35.3 pg/mL, the “ratio of IL-4/IFN-γ” value was 0.331±0.074 and the “ratio of IL-10/IFN-γ” value stood at 0.83±0.1.

As to `CCCCCCCCCCCCCCCCCCCCCCCCCC(=O)N[C@@H](CO[C@H]1O[C@H](COCCCCCC)[C@H](O)[C@H](O)[C@H]1O)[C@H](O)[C@H](O)CCCCCCCCCCCCCC` [Compound 2c, (2S,3S,4R)-1-O-(6-O-hexyl-α-D-galactopyranosyl)-D-ribo-2-hexacosanoylamino-1,3,4-octa-decantriol], in series [1], the “ratio of IL-4/IFN-γ” value is listed as 0.044±0.011 and the “ratio of IL-10/IFN-γ” value came out at 0.91±0.26.

For the compound `CCCCCCCCCCCCCCCCCCCCCCCCCC(=O)N[C@@H](CO[C@H]1O[C@H](COC)[C@H](O)[C@H](O)[C@H]1O)[C@H](O)[C@H](O)CCCCCCCCCCCCCC` [Compound 2b, (2S,3S,4R)-1-O-(6-O-methyl-α-D-galactopyranosyl)-D-ribo-2-hexacosanoylamino-1,3,4-octa-decantriol], the IFN-γ level induced in series [1] was 2286 ± 344.3 pg/mL. Further, the “levels of cytokines induced compared to Compound 1” value in series [1] (setting [4]) is reported as “similar”. For the same compound, the IL-2 level induced in series [3] turned out to be 13.3 ± 1.3 ng/mL.

In the case of `CCCCCCCCCCCCCCCCCCCCCCCCCC(=O)N[C@@H](CO[C@H]1OC(COS(=O)(=O)[O-])[C@H](O)C(O)C1O)[C@H](O)[C@H](O)CCCCCCCCCCCCCC.[Na+]` (stereo partly drawn) [Compound 2h, (2S,3S,4R)-1-O-(6-O-sulfo-α-D-galactopyranosyl)-D-ribo-2-hexacosanoylamino-1,3,4-octadecantriol, sodium salt], in series [1], the GM-CSF level induced was 2024 ± 108.4 pg/mL, the IFN-γ level induced is 2739 ± 14.52 pg/mL, the IL-2 level induced came out at 60.3 ± 24.4 pg/mL and the IL-4 level induced was determined as 113.9 ± 28.4 pg/mL.

With `CCCCCCCCCCCCCCCCCCCCCCCCCC(=O)N[C@@H](CO[C@H]1O[C@H](COCCCCCCCCCCCCC)[C@H](O)[C@H](O)[C@H]1O)[C@H](O)[C@H](O)CCCCCCCCCCCCCC` [Compound 2e, (2S,3S,4R)-1-O-(6-O-tridecyl-α-D-galactopyranosyl)-D-ribo-2-hexacosanoylamino-1,3,4-oct-adecantriol], in series [1], the IL-2 level induced was 32.5 ± 1.7 pg/mL, the IL-4 level induced was determined as 140.4 ± 6.1 pg/mL, the “ratio of IL-4/IFN-γ” value was found to be 0.246±0.053 and the “ratio of IL-10/IFN-γ” value is recorded as 0.73±0.03.

As to `CCCCCCCCCCCCCCCCCCCCCCCCCC(=O)N(C)[C@@H](CO[C@H]1OC(COC)[C@H](O)[C@H](O)C1O)[C@H](O)[C@H](O)CCCCCCCCCCCCCC` (stereo partly drawn) [Compound 2a, (2S,3S,4R)-1-O-(6-O-methyl-α-D-galactopyranosyl)-D-ribo-2-N-methyl-hexacosanoylamino-1,3,4-octadecantriol], the melting point was 64 to 66 °C. In series [1], the “ratio of IL-4/IFN-γ” value amounted to 0.032±0.0009 and the “ratio of IL-10/IFN-γ” value is 0.63±0.07.
